Activity calls are given as the source filed them.
Assays:
[1] = molecular target: T1, Runt-related transcription factor 1/Core-binding factor subunit beta (Homo sapiens, UniProt Q01196+Q13951); assay: Runt domain/CBFb-SMMHC interaction disruptors – biochemical, TR-FRET (AID 1438); type: protein assay
[2] = molecular target: T1, Runt-related transcription factor 1/Core-binding factor subunit beta; assay: disruptors of Runt domain/CBFb-SMMHC interaction – biochemical, FRET, Cerulean-Runt, Venus-CBFb-SMMHC, uHTS, […] (AID 1434); type: protein assay
Troponin, cardiac muscle = Troponin, cardiac muscle (Homo sapiens, UniProt P19429+P45379+P63316); assay: Fluorescence-based biochemical high throughput dose response assay for activators of the calcium sensitivity of cardiac Regulated Thin Filaments (RTF). [Related pubchem assays (depositor defined):AID493008, AID493018, AID504382, AID504383]; type: protein-complex assay
Estrogen receptor = molecular target: T2, Estrogen receptor (Homo sapiens, UniProt P03372);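 further: potency for inhibiting coactivator peptide recruitment to the receptor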
T2 sequence (P03372 whole entry): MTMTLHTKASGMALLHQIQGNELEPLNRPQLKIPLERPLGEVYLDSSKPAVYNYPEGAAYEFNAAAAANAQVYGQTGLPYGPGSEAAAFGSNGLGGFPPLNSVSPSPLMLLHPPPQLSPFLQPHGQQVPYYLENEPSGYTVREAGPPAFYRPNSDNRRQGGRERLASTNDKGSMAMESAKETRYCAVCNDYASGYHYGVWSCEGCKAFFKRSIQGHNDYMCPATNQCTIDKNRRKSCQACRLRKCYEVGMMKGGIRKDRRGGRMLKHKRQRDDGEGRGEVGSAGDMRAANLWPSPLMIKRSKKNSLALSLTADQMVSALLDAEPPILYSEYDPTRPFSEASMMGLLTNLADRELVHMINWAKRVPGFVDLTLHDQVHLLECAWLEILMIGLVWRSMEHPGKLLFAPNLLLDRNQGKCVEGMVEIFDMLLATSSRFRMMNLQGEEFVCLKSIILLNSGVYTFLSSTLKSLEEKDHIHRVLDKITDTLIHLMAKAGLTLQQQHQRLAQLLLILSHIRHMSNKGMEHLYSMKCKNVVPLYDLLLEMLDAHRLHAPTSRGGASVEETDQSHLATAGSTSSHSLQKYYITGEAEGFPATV

[3] = molecular target: T3, Corticotropin-releasing factor receptor 2/Corticotropin-releasing factor-binding protein (Homo sapiens, UniProt P24387+Q13324); assay: Dose Response confirmation of uHTS hits for small molecule antagonists of the CRF-binding protein and CRF-R2 receptor complex.; type: functional; conditions: read-out: IC50_Mean
T3 sequence (Q13324 whole entry): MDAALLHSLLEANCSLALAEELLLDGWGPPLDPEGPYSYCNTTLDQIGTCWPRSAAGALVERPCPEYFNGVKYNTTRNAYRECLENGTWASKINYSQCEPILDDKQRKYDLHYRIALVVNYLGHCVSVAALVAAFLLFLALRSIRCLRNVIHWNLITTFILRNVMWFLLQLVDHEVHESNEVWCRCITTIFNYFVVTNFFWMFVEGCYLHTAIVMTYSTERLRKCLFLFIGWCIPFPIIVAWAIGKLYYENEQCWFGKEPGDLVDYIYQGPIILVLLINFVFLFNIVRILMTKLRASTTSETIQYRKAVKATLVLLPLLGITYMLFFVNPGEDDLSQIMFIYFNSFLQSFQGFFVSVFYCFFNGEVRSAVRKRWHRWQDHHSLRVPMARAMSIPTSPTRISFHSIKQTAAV
T3 sequence (P24387 whole entry): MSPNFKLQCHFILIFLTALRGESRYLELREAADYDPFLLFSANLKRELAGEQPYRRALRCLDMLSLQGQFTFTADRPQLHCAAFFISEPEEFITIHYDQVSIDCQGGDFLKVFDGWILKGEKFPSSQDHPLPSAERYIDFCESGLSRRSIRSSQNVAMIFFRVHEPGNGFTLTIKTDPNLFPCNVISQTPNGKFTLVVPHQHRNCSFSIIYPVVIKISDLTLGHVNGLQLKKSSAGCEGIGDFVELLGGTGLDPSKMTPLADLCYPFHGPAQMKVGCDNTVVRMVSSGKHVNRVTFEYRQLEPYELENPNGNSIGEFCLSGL

[4] = molecular target: T3, Corticotropin-releasing factor receptor 2/Corticotropin-releasing factor-binding protein; assay: activators of CRF receptor 2 with binding protein – uHTS hits, confirmation (AID 602473); type: functional; conditions: read-out: EC50_Mean
Protein Rev = Protein Rev (Human immunodeficiency virus type 1 group M subtype B (isolate HXB2)(HIV-1), UniProt P04618); assay: blockers of HIV Rev/RRE RNA complex – biochemical, fluorescence polarization, HIV-1, dose response (AID 434976); set-up: species or system Human immunodeficiency virus 1
[5] = molecular target: Female germline-specific tumor suppressor gld-1 (Caenorhabditis elegans, UniProt Q17339); assay: blockers of GLD-1/TGE RNA complex formation – biochemical, fluorescence polarization, C. elegans, dose response (AID 2802);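 further: fluorescence polarization of labeled TGE RNA bound by purified gld-1 protein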
[6] = molecular target: Peroxisome proliferator-activated receptor gamma/Nuclear receptor coactivator 3 (Homo sapiens, UniProt P37231); assay: TR-FRET dose response biochemical High Throughput Screening assay for agonists of the steroid receptor coactivator 3 (SRC-3) recruitment by the peroxisome proliferator-activated receptor gamma (PPAR gamma): non-selective agonists. [Related pubchem assays: 1301 (Confirmation screen.), 1048 (Primary screen.)]; type: functional
[7] = molecular target: Peroxisome proliferator-activated receptor gamma/Nuclear receptor coactivator 2 (Homo sapiens, UniProt P37231); assay: TR-FRET dose response biochemical High Throughput Screening assay for agonists of the steroid receptor coactivator 2 (SRC-2) recruitment by the peroxisome proliferator-activated receptor gamma (PPAR gamma): non-selective agonists. [Related pubchem assays: 1297, 1032 ]; type: functional
[8] = molecular target: Peroxisome proliferator-activated receptor gamma/Nuclear receptor coactivator 1 (Homo sapiens, UniProt P37231); assay: TR-FRET dose response biochemical High Throughput Screening assay for agonists of the steroid receptor coactivator 1 (SRC-1) recruitment by the peroxisome proliferator-activated receptor gamma (PPAR gamma): non-selective agonists. [Related pubchem assays (depositor defined):AID1300, AID1808, AID504735, AID631]; type: protein assay
[9] = molecular target: T4, Short transient receptor potential channel 4 (Mus musculus, UniProt Q9QUQ5); assay: calcium entry via TRPC4 opening agents – cell-based, HEK293 TRPC4/mu-opioid, Fluo-4 calcium, dose response (AID 434937); type: functional
T4 sequence (Q9QUQ5 whole entry): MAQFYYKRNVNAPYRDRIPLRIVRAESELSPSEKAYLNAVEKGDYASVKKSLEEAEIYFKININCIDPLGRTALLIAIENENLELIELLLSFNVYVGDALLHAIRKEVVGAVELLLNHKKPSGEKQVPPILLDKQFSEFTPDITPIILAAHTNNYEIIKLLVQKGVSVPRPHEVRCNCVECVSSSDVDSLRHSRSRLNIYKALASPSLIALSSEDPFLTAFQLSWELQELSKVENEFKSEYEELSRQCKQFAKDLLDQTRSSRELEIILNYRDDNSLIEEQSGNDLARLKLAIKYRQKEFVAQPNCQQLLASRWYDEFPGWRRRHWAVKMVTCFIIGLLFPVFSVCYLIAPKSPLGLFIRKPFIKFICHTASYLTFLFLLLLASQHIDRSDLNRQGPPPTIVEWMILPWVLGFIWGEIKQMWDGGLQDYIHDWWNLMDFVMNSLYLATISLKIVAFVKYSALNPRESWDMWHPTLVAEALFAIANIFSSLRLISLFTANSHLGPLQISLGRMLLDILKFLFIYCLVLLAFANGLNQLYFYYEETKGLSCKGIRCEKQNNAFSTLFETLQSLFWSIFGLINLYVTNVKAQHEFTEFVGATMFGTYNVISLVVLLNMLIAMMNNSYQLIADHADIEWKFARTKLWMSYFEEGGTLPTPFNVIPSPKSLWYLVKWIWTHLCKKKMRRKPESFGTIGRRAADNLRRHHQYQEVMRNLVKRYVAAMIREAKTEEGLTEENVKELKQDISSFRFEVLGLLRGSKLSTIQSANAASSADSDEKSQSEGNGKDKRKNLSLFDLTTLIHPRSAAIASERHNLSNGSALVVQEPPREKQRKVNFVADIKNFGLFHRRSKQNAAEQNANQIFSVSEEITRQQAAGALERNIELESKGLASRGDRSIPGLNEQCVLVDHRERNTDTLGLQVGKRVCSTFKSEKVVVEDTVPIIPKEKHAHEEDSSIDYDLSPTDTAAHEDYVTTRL

SUMO-activating enzyme [10] = molecular target: T5, SUMO-activating enzyme (Homo sapiens, UniProt Q9UBT2); assay: blockers of SAE1/SAE2–UBC9 SUMO transfer – biochemical, HTRF, uHTS, primary screen (AID 2006); type: protein-complex assay
SUMO-activating enzyme [11] = molecular target: T5, SUMO-activating enzyme; assay: blockers of UBC9-mediated SUMO conjugation – biochemical, AlphaScreen, SUMOylation inhibitor project, confirmation (AID 2018); type: functional
SUMO E1/E2 = SUMO E1/E2 (Homo sapiens, UniProt P63279+Q9UBE0+Q9UBT2); assay: SAR analysis of SUMOylation using HTRF in an in-Vitro dose response assay. [Related pubchem assays (depositor defined):AID2006, AID2011, AID2018, AID2069, AID2658]; type: functional
Ephrin type-A receptor 4 = Ephrin type-A receptor 4 (Mus musculus, UniProt Q03137); assay: EphA4 ligand-binding antagonists – biochemical, colorimetric, mouse EphA4, primary screen (AID 689); type: functional
[12] = molecular target: T6, Alkaline phosphatase, tissue-nonspecific isozyme (Homo sapiens, UniProt P05186); assay: potency against alkaline phosphatase TNAP – biochemical, luminescent, dose response, SAR follow-up (AID 1056)
T6 sequence (P05186 whole entry): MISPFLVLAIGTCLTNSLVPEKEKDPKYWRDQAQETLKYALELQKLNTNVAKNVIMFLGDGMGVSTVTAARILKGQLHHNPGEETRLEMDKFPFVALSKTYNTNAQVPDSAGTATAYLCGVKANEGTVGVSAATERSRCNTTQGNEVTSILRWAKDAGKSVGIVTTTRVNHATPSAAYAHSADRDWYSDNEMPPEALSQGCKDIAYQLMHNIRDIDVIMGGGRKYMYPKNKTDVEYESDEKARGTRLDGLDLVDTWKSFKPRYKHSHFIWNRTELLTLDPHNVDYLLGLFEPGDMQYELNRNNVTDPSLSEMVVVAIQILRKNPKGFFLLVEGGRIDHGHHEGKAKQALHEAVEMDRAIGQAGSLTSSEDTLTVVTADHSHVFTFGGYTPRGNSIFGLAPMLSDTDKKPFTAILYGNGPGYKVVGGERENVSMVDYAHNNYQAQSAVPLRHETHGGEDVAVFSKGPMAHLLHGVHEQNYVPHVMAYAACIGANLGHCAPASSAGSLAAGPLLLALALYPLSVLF

[13] = molecular target: Alkaline phosphatase, placental type (Homo sapiens, UniProt P05187); assay: human placental alkaline phosphatase inhibition – biochemical, luminescence, confirmation (AID 1512); type: functional
[14] = viability of HCT116 lacking mutant beta-catenin – cell-based, human colon tumor, dose response (AID 1045); type: functional;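 further: HCT116 colon tumor cells with beta catenin knocked out; cells exposed to compound for 60 hours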
[15] = HepG2 cell cytotoxicity, dose response, cytotoxicity control for non-replicating M. tuberculosis project (AID 489018); type: functional; conditions: Mycobacterium tuberculosis
INS1 = assay: INS-1E survival protection against cytokine death – cell-based, luminescence, retest, dose response (AID 449756); type: functional; conditions: Rattus norvegicus;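 further: cell death triggered by IL-1 beta plus TNF-alpha plus IFN-gamma mixture; protective hits raise ATP signal compared with cytokine alone wells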
cells = type: functional
[16] = viability of PTEN-deleted HCT116 cells – cell-based, HCT116 PTEN knockout, dose response (AID 1047); type: functional;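 further: HCT116 colon tumor cells with PTEN knocked out; cells exposed to compound for 60 hours before readout; potency for loss of cell viability measured by luminescence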
[17] = THP-1 cell cytotoxicity, dose response, cytotoxicity control for non-replicating M. tuberculosis project (AID 489025); type: functional
[18] = Vero E6 cell cytotoxicity, dose response, cytotoxicity control for non-replicating M. tuberculosis project, secondary assay (AID 492998); type: functional, VeroE6; conditions: Vero C1008
[19] = molecular target: Glyceraldehyde-3-phosphate dehydrogenase (Homo sapiens, UniProt P04406)

CCOc1cc(C2C3=C(CCCC3=O)N(CCC(=O)O)C3=C2C(=O)CCC3)ccc1OS(=O)(=O)c1ccc(C)cc1
IC50 [1]: 30.5 µM (active)
IC50 [2]: 0.629 µM (active)

O=C(Nc1nc(-c2nc3ccccc3s2)cs1)C1COc2ccccc2O1 (centres undefined)
EC50 (Troponin, cardiac muscle): > 71.5 µM (inactive)
IC50 (Estrogen receptor): 25.1 µM (active)

Cc1cccn2c(=O)c(/C=C(\C#N)C(=O)NCc3ccco3)c(N3CCC(C(N)=O)CC3)nc12
IC50 [1]: > 100 µM (inactive)
IC50 [2]: > 100 µM (inactive)

CCOc1cc(C2C(C(=O)OC)=CN(C3CCCC3)C=C2C(=O)OC)cc(Br)c1O
IC50 [3]: > 47.1 µM (inactive)
EC50 [4]: > 53 µM (inactive)
IC50 (Protein Rev): > 75.4 µM (not active)
IC50 [5]: > 59.6 µM (inactive)

CCCC(C)NC(=O)c1ccc(OCc2ccc(Cl)cc2)c(OC)c1 (centres undefined)
EC50 [6]: 13.8 µM (not active)
EC50 [7]: > 79.4 µM (not active)
EC50 [8]: 157 µM (inactive)

CCn1c(N2CCN(C(S)=NCC(C)C)CC2)nc2ccccc21
EC50 [9]: 1.68 µM (active)

Cc1ccc(NC(=O)c2ccccc2OCC(=O)Nc2cccc(Cl)c2C)nc1
IC50 (SUMO-activating enzyme [10]): 17.8 µM (active)
IC50 (SUMO-activating enzyme [11]): 34.5 µM (active)

COc1ccc(-n2c(NC(=O)c3ccc(Br)o3)c(C#N)c3nc4ccccc4nc32)cc1
IC50 (SUMO E1/E2): 20.2 µM (active)
IC50 (SUMO-activating enzyme [10]): 17.8 µM (active)
IC50 (Ephrin type-A receptor 4): > 100 µM (not active)
IC50 (SUMO-activating enzyme [11]): 8.09 µM (active)

CC(CCC(C)C(C)(C)C)[C@@H]1CC[C@H]2C3C[C@H](OS(O)(=S)=S)[C@H]4C[C@H](OS(O)(=S)=S)[C@@H](OS(O)(=S)=S)C[C@]4(C)[C@H]3CC[C@]12C.Nc1ncc[nH]1 (some centres undefined)
IC50 (Protein Rev): 8.34 µM (active)
IC50 [5]: 3.66 µM (active)

CCc1nnc(SCC(=O)c2ccc(O)c(O)c2)[nH]1
IC50 [12]: 10.9 µM (active)
IC50 [13]: 3.25 µM (active)

CCn1cc(CN2CCC(n3nccc3NC(=O)CCOc3ccccc3)CC2)cn1
EC50 [9]: 1.19 µM (active)

O=C(Cc1ccccc1)N/N=C/c1ccc([N+](=O)[O-])s1
EC50 [14]: 8.44 µM (active)
CC50 [15]: 16 µM (active)
AC50 (INS1): 6.38 µM (active)
IC50 (cells): 11.1 µM (active)
EC50 [16]: 9.53 µM (active)
CC50 [17]: 26.6 µM (active)
CC50 [18]: 12.5 µM (active)

O=C(c1cc(-c2ccc(Cl)cc2Cl)n[nH]1)N1CCOCC1
IC50 [19]: > 100 µM (not active)
IC50 [13]: > 100 µM (inactive)
